Data as given in US11491120B2, “Pharmacological prophylactics against stress-induced affective disorders in females” (The Trustees of Columbia University in the City of New York, priority 2017, dated 2022).
“Also recorded” adds a separate entry of the source.

Tested on: female 129S6/SvEv mice
Test: Contextual fear conditioning (CFC), 3-shock, freezing in training and context re-exposure
[1] = 0.025 mg/kg, 24 hours before CFC, female mice
[2] = Contextual Fear Conditioning Re-exposure, Dunnett test Sal vs. drug (0.025), 1 week prophylactic drug
[3] = Contextual Fear Conditioning Re-exposure, Dunnett test Sal vs. drug (0.075), 1 week prophylactic drug
[4] = Contextual Fear Conditioning Re-exposure, Dunnett test Sal vs. drug (0.1), 1 week prophylactic drug
[5] = Contextual Fear Conditioning Re-exposure, Dunnett test Sal vs. drug (0.3), 1 week prophylactic drug
[6] = Contextual Fear Conditioning Re-exposure, Dunnett test Sal vs. drug (2.5), 1 week prophylactic drug
[7] = Contextual Fear Conditioning Re-exposure, Dunnett test Sal vs. drug (10), 1 week prophylactic drug
[8] = Contextual Fear Conditioning Training, Dunnett test Sal vs. drug (0.025), 1 week prophylactic drug
[9] = Contextual Fear Conditioning Training, Dunnett test Sal vs. drug (0.075), 1 week prophylactic drug
[10] = Contextual Fear Conditioning Training, Dunnett test Sal vs. drug (0.1), 1 week prophylactic drug
[11] = Contextual Fear Conditioning Training, Dunnett test Sal vs. drug (0.3), 1 week prophylactic drug
[12] = Contextual Fear Conditioning Training, Dunnett test Sal vs. drug (2.5), 1 week prophylactic drug
[13] = Contextual Fear Conditioning Training, Dunnett test Sal vs. drug (10), 1 week prophylactic drug
[14] = Ovariectomized cohort, 1 week prophylactic drug, Contextual Fear Conditioning Re-exposure, FIG. 10B, Sham mice, K (10), (2R,6R)-HNK (0.025)
[15] = Ovariectomized cohort, 1 week prophylactic drug, Contextual Fear Conditioning Re-exposure, FIG. 10C, Sham mice, K (10), (2R,6R)-HNK (0.025)
[16] = Ovariectomized, E2/P4 replacement, 1 week prophylactic drug, Contextual Fear Conditioning Training, FIG. 10D, Vehicle vs E2/P4, same drug, K (10), (2R,6R)-HNK (0.025)
[17] = Sal vs. (2R,6R)-HNK (0.025), Fisher's PLSD, 1 week prophylactic drug, learned helplessness stress, Contextual Fear Conditioning Re-exposure
[18] = Sal vs. (2R,6R)-HNK (0.025), Fisher's PLSD, Stress, antidepressant drug/Contextual Fear Conditioning Training

SMILES: N[C@@]1(c2ccccc2Cl)CCC[C@@H](O)C1=O [(2R,6R)-HNK, (2R,6R)-hydroxynorketamine]
- p, Sal vs. drug, Dunnett test: Freezing (Average), Contextual Fear Conditioning Re-exposure (0.025 mg/kg, 1 week prophylactic drug): 0.4341
- Freezing / fear expression during re-exposure vs saline [1]: comparable levels of freezing
- Freezing / fear learning during CFC training vs saline [1]: comparable levels of freezing; also recorded: did not alter fear learning
- p, Sal vs. drug, Dunnett test: Freezing (Average), Contextual Fear Conditioning Re-exposure (0.075 mg/kg, 1 week prophylactic drug): 0.9955
- p, Sal vs. drug, Dunnett test: Freezing (Average), Contextual Fear Conditioning Re-exposure (0.1 mg/kg, 1 week prophylactic drug): 0.9257
- p, Sal vs. drug, Dunnett test: Freezing (Average), Contextual Fear Conditioning Re-exposure (0.3 mg/kg, 1 week prophylactic drug): 0.9993
- p, Sal vs. drug, Dunnett test: Freezing (Average), Contextual Fear Conditioning Re-exposure (2.5 mg/kg, 1 week prophylactic drug): 0.6274
- Freezing during 3-shock CFC training vs saline (10 mg/kg, 1 week before CFC, female mice): significantly lowered freezing
- p, Sal vs. drug, Dunnett test: Freezing (Average), Contextual Fear Conditioning Re-exposure (10 mg/kg, 1 week prophylactic drug): 0.9991
- Freezing during context re-exposure vs saline (3 days before CFC, female mice): do not affect freezing during re-exposure
- p, Freezing (min 1-5) [2]: 0.4341
- p, Freezing (min 2) [2]: 0.1669
- p, Freezing (min 3) [2]: 0.8139
- p, Freezing (min 4) [2]: 0.6797
- p, Freezing (min 5) [2]: 0.7607
- p, Freezing (min 1-5) [3]: 0.9955
- p, Freezing (min 2) [3]: >0.9999
- p, Freezing (min 3) [3]: 0.9009
- p, Freezing (min 4) [3]: 0.9994
- p, Freezing (min 5) [3]: 0.9990
- p, Freezing (min 1-5) [4]: 0.9257
- p, Freezing (min 2) [4]: 0.9990
- p, Freezing (min 3) [4]: 0.9333
- p, Freezing (min 4) [4]: 0.9679
- p, Freezing (min 5) [4]: 0.8119
- p, Freezing (min 1-5) [5]: 0.9993
- p, Freezing (min 2) [5]: 0.9998
- p, Freezing (min 3) [5]: 0.9954
- p, Freezing (min 4) [5]: 0.9994
- p, Freezing (min 5) [5]: 0.9991
- p, Freezing (min 1-5) [6]: 0.6274
- p, Freezing (min 2) [6]: 0.2365
- p, Freezing (min 3) [6]: 0.4707
- p, Freezing (min 4) [6]: 0.3440
- p, Freezing (min 5) [6]: 0.9997
- p, Freezing (min 1-5) [7]: 0.9991
- p, Freezing (min 2) [7]: 0.9994
- p, Freezing (min 3) [7]: 0.9074
- p, Freezing (min 4) [7]: 0.9994
- p, Freezing (min 5) [7]: 0.9003
- p, Freezing (min 1-5) [8]: 0.7272
- p, Freezing (min 4) [8]: 0.9640
- p, Freezing (min 5) [8]: 0.9668
- p, Freezing (min 1-5) [9]: 0.9917
- p, Freezing (min 4) [9]: 0.9911
- p, Freezing (min 5) [9]: 0.9993
- p, Freezing (min 1-5) [10]: 0.6657
- p, Freezing (min 4) [10]: >0.9999
- p, Freezing (min 5) [10]: 0.2588
- p, Freezing (min 1-5) [11]: 0.9992
- p, Freezing (min 4) [11]: 0.9477
- p, Freezing (min 5) [11]: >0.9999
- p, Freezing (min 1-5) [12]: 0.9993
- p, Freezing (min 4) [12]: 0.9991
- p, Freezing (min 5) [12]: 0.9997
- p, Freezing (min 1-5) [13]: 0.1798
- p, Freezing (min 4) [13]: 0.4387
- p, Freezing (min 5) [13]: 0.3423
- p, Freezing (min 1-5), Fisher's PLSD, OVX Sal vs OVX drug (Ovariectomized cohort, 1 week prophylactic drug, Contextual Fear Conditioning Re-exposure, FIG. 10B, OVX mice, K (10), (2R,6R)-HNK (0.025)): 0.2290
- * (significance), Freezing (min 1-5), Fisher's PLSD, Sham Sal vs Sham drug [14]: * (* p<0.05)
- p, Freezing (min 1-5), Fisher's PLSD, Sham Sal vs Sham drug [14]: 0.0244
- p, Freezing (min 1-5), Fisher's PLSD, Sham drug vs OVX drug (Ovariectomized cohort, 1 week prophylactic drug, Contextual Fear Conditioning Re-exposure, FIG. 10B, Sham vs OVX, same drug, K (10), (2R,6R)-HNK (0.025)): 0.3764
- p, Freezing Average (min 1-5), Fisher's PLSD, OVX Sal vs OVX drug (Ovariectomized cohort, 1 week prophylactic drug, Contextual Fear Conditioning Re-exposure, FIG. 10C, OVX mice, K (10), (2R,6R)-HNK (0.025)): 0.2290
- * (significance), Freezing Average (min 1-5), Fisher's PLSD, Sham Sal vs Sham drug [15]: * (* p<0.05)
- p, Freezing Average (min 1-5), Fisher's PLSD, Sham Sal vs Sham drug [15]: 0.0244
- p, Freezing Average (min 1-5), Fisher's PLSD, Sham drug vs OVX drug (Ovariectomized cohort, 1 week prophylactic drug, Contextual Fear Conditioning Re-exposure, FIG. 10C, Sham vs OVX, same drug, K (10), (2R,6R)-HNK (0.025)): 0.3764
- p, Freezing (min 1-5), Fisher's PLSD, E2/P4 Sal vs E2/P4 drug (Ovariectomized, E2/P4 replacement, 1 week prophylactic drug, Contextual Fear Conditioning Re-exposure, FIG. 10E, E2/P4 mice, K (10), (2R,6R)-HNK (0.025)): 0.4219
- p, Freezing (min 1-5), Fisher's PLSD, Vehicle Sal vs Vehicle drug (Ovariectomized, E2/P4 replacement, 1 week prophylactic drug, Contextual Fear Conditioning Re-exposure, FIG. 10E, Vehicle (hormone) mice, K (10), (2R,6R)-HNK (0.025)): 0.9324
- p, Freezing (min 1-5), Fisher's PLSD, Vehicle drug vs E2/P4 drug (Ovariectomized, E2/P4 replacement, 1 week prophylactic drug, Contextual Fear Conditioning Re-exposure, FIG. 10E, Vehicle vs E2/P4, same drug, K (10), (2R,6R)-HNK (0.025)): 0.5588
- p, Freezing Average (min 1-5), Fisher's PLSD, E2/P4 Sal vs E2/P4 drug (Ovariectomized, E2/P4 replacement, 1 week prophylactic drug, Contextual Fear Conditioning Re-exposure, FIG. 10F, E2/P4 mice, K (10), (2R,6R)-HNK (0.025)): 0.4219
- p, Freezing Average (min 1-5), Fisher's PLSD, Vehicle Sal vs Vehicle drug (Ovariectomized, E2/P4 replacement, 1 week prophylactic drug, Contextual Fear Conditioning Re-exposure, FIG. 10F, Vehicle (hormone) mice, K (10), (2R,6R)-HNK (0.025)): 0.9324
- p, Freezing Average (min 1-5), Fisher's PLSD, Vehicle drug vs E2/P4 drug (Ovariectomized, E2/P4 replacement, 1 week prophylactic drug, Contextual Fear Conditioning Re-exposure, FIG. 10F, Vehicle vs E2/P4, same drug, K (10), (2R,6R)-HNK (0.025)): 0.5588
- p, Freezing (min 1-5), Fisher's PLSD, E2/P4 Sal vs E2/P4 drug (Ovariectomized, E2/P4 replacement, 1 week prophylactic drug, Contextual Fear Conditioning Training, FIG. 10D, E2/P4 mice, K (10), (2R,6R)-HNK (0.025)): 0.7901
- p, Freezing (min 1-5), Fisher's PLSD, Vehicle Sal vs Vehicle drug (Ovariectomized, E2/P4 replacement, 1 week prophylactic drug, Contextual Fear Conditioning Training, FIG. 10D, Vehicle (hormone) mice, K (10), (2R,6R)-HNK (0.025)): 0.6290
- * (significance), Freezing (min 1-5), Fisher's PLSD, Vehicle drug vs E2/P4 drug [16]: ** (** p<0.01)
- p, Freezing (min 1-5), Fisher's PLSD, Vehicle drug vs E2/P4 drug [16]: 0.0067
- *, Freezing (min 1) [17]: * (* p<0.05)
- p, Freezing (min 1) [17]: 0.0399
- p, Freezing (min 5) (Sal vs. (2R,6R)-HNK (0.025), Fisher's PLSD, 3 day prophylactic drug/Contextual Fear Conditioning Training): 0.9911
- p, Freezing (min 1-5) [18]: 0.2199
- p, Freezing (min 5) [18]: 0.0731
- p, Freezing Average (min 1-5) (Sal vs. (2R,6R)-HNK (0.025), t-test, 24 hour prophylactic drug/Contextual Fear Conditioning Re-exposure): 0.2334
- Freezing during CFC Training, E2/P4+drug vs vehicle+drug (ovariectomized mice, hormone replacement): froze significantly more; also recorded: exhibited increased freezing
- Freezing during CFC re-exposure vs saline (ovariectomized mice, vehicle condition): froze at comparable levels
- Freezing during re-exposure to the CFC training context vs saline (single i.p. injection 1 week before 3-shock CFC, all doses, female mice): do not significantly alter freezing; also recorded: did not alter overall freezing
- Attenuation of learned fear (single injection 1 week before stressor, female mice): do not alter learned fear; also recorded: do not attenuate learned fear
